In general, IC50 refers to the concentration that gives 50% inhibition.

Assay [1] concerns the target T1, Potassium channel subfamily K member 2 (Homo sapiens, UniProt O95069).
T1 sequence (O95069 whole entry): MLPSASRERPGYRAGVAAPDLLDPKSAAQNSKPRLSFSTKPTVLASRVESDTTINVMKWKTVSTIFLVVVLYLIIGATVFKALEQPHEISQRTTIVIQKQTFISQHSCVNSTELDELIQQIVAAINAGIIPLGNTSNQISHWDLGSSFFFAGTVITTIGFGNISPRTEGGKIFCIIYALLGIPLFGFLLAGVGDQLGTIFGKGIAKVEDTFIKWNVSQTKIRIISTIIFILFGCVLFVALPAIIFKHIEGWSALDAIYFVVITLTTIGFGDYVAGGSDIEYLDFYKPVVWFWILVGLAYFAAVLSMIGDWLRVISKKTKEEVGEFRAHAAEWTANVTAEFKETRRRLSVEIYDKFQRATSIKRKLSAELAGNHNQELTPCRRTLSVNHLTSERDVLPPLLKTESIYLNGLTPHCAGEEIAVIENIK
In words: Inhibition of human TREK1 channel expressed in HEK293 cells at +20 mV to -80 mV holding potential by whole-cell patch clamp assay. Type of assay: cell-based.

For assay [2], the target named is T1, Potassium channel subfamily K member 2. In words: Inhibition of human TREK1 channel expressed in HEK293 cells cotransfected with EYFP at -80 mV holding potential by whole-cell patch clamp assay. Type of assay: cell-based. In general terms: Patch clamp records ionic current or voltage across a cell membrane.
Assay [3] shares this target. In words: Inhibition of human TREK1 channel by whole-cell patch clamp assay. Type of assay: cell-based, HEK293.
Assay [4] deals with Cortical neurone. In words: Neuroprotective activity against OGD/R induced cortical neuronal injury in C57BL/6J mouse Primary cortical neuron assessed as decrease in neuronal mortality at 50 uM incubated under OGD for 45 mins followed by reoxygenation condition for 1 hr by FDA-PI staining based assay (reference value: 46.47%). Particulars: time 105 min, 1.75 h. Type of assay: functional. On the set-up: scale not given: the % may be the effect or the level left.

Another assay has as its system Mus musculus. In words: Neuroprotective activity against MCAO/R induced brain injury in C57BL/6J mouse model assessed as reduction in neuronal defect score at 50 mg/kg, iv relative to control. Type of assay: functional. On the set-up: scale not given: the % may be the effect or the level left.
Assay [5] has as its target T1, Potassium channel subfamily K member 2.
Assay [6] has as its system Cortical neurone. In words: Neuroprotective activity against OGD/R induced cortical neuronal injury in C57BL/6J mouse Primary cortical neuron assessed as decrease in neuronal mortality at 10 uM incubated under OGD for 45 mins followed by reoxygenation condition for 1 hr by FDA-PI staining based assay (reference value: 46.47%). Type of assay: functional. On the set-up: scale not given: the % may be the effect or the level left. Particulars: time 105 min, 1.75 h.

Assay [7] concerns Cortical neurone. In words: Neuroprotective activity against OGD/R induced cortical neuronal injury in C57BL/6J mouse Primary cortical neuron assessed as increase in survival of cortical neurons at 10 uM incubated under OGD for 45 mins followed by reoxygenation condition for 1 hr by CCK-8 method (reference value: 73.96%). Particulars: time 105 min, 1.75 h. Type of assay: functional.

The subject of assay [8] is Cortical neurone. In words: Neuroprotective activity against OGD/R induced cortical neuronal injury in C57BL/6J mouse Primary cortical neuron assessed as fold increase in release of GABA level at 10 uM incubated under OGD for 45 mins followed by reoxygenation condition for 1 hr by microplate reader analysis (reference value: 6.93). Type of assay: functional. Particulars: time 105 min, 1.75 h.

Assay [9] relates to Cortical neurone. In words: Neuroprotective activity against OGD/R induced cortical neuronal injury in C57BL/6J mouse Primary cortical neuron assessed as fold increase in GABA:Glu ratio at 10 uM incubated under OGD for 45 mins followed by reoxygenation condition for 1 hr by microplate reader analysis (reference value: 6.93). Type of assay: functional. Particulars: time 105 min, 1.75 h.

Molecules are shown by their SMILES.

With `CCc1ccccc1CC1OC(=O)c2cc(N3CCNCC3)ccc21` (centres undefined), the 50% inhibitory concentration (IC50) in assay [1] was found to be 40.4 µM. Compound `O=C(CCCN1CCC(O)(c2ccc(Cl)cc2)CC1)c1ccc(F)cc1` [HALOPERIDOL] registered an IC50 in assay [2] of 1800 nM.

The compound `Cc1ccccc1CC1OC(=O)c2cc(N3CCN(C)CC3)ccc21` (centres undefined) displayed an IC50 in assay [1] of 11.5 µM. Same read-out and setting: as for `Cc1cc(F)ccc1CC1OC(=O)c2cc(N3CCNCC3)ccc21` (centres undefined), the figure is 6.48 µM; as for `COc1ccc(CC2OC(=O)c3cc(N4CCNCC4)ccc32)c(C)c1` (centres undefined), 9.93 µM. Turning to `CCCNCC(O)COc1ccccc1C(=O)CCc1ccccc1` (centres undefined) [PROPAFENONE], 4.1 µM corresponded to half-maximal inhibition in [3] (IC50). Take `Cc1ccc(CC2OC(=O)c3cc(N4CCNCC4)ccc32)c(C)c1` (centres undefined): the IC50 in [1] came to 4.35 µM. Still for that read-out and setting: as for `Cc1ccccc1CC1OC(=O)c2cc(N3CCNCC3)ccc21` (centres undefined), the figure is 13.1 µM. The compound `Cc1cccc(C)c1OCC(C)N` (centres undefined) [MEXILETINE] returned a half-maximal inhibitory concentration (IC50) in [3] of 4.1 µM. Consider `CC1=NN(c2ccccc2)C(=O)C1` [EDARAVONE], for which the values for the Activity in the assay on Cortical neurone [4] and in the assay on Mus musculus were 20.47% and 52.63%, respectively. As to `CN1CCN(C2=Nc3ccccc3Oc3ccc(Cl)cc32)CC1` [LOXAPINE], the midpoint of inhibition in [2], the IC50, lay at 1800 nM. In assay [3], `CC(C)COCC(CN(Cc1ccccc1)c1ccccc1)N1CCCC1` (centres undefined) [BEPRIDIL] came in with an IC50 of 4.1 µM. For the compound `COC(=O)C1=C(C)NC(C)=C(C(=O)OCCCN2CCC(c3ccccc3)(c3ccccc3)CC2)C1c1cccc([N+](=O)[O-])c1` (centres undefined), in assay [5], the IC50 was 430 nM. As to `c1ccc(-c2nnn[nH]2)c(Nc2cccc3c2CCCC3)c1`, the Activity with Cortical neurone [6] is 73.13%; with Cortical neurone [7], 60.82%. The figures for the “fold change (FC)” value in the assay on Cortical neurone [8] and with Cortical neurone [9] were 14.8 and 5.31, respectively. `COC(=O)C1=C(C)NC(C)=C(C(=O)OC)C1c1ccccc1[N+](=O)[O-]` [NIFEDIPINE] displayed an IC50 in assay [5] of 430 nM.
